The values below come from BindingDB's records for doi:10.1074/jbc.M111.292243 (University of Copenhagen, 2012).

Holding throughout (experiment): Radioligand Competition Assay
Assay [1] has as its target Neuronal acetylcholine receptor subunit alpha-4 (Rattus norvegicus, UniProt P09483).
In assay [2] the target is Neuronal acetylcholine receptor subunit alpha-7 (Rattus norvegicus, UniProt Q05941).
Assay [3] concerns the target Acetylcholine-binding protein (Lymnaea stagnalis, UniProt P58154).

Chain of Acetylcholine-binding protein (P58154 whole entry): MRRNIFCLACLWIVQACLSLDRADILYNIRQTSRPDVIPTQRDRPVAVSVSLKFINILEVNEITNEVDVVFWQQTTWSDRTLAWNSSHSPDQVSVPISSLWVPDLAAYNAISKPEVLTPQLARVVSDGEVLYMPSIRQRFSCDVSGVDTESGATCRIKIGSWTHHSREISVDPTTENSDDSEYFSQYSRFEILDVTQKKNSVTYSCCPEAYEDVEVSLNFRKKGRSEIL
Chain of Neuronal acetylcholine receptor subunit alpha-4 (P09483 whole entry): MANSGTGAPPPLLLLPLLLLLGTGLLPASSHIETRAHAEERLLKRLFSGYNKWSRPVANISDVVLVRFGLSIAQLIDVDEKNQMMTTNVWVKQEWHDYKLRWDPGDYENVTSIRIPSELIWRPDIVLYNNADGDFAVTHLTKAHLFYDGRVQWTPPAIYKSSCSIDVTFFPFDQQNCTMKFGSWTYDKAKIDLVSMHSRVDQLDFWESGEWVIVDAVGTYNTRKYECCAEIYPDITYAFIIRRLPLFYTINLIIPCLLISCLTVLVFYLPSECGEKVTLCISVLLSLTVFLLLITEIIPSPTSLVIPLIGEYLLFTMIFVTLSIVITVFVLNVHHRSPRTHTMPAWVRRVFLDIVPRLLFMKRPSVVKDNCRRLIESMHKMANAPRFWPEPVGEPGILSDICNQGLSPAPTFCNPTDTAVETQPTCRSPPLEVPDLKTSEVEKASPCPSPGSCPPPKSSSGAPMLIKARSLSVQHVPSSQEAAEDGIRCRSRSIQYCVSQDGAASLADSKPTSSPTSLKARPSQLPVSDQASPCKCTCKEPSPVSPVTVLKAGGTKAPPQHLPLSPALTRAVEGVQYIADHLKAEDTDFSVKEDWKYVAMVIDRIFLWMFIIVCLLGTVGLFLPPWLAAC
Chain of Neuronal acetylcholine receptor subunit alpha-7 (Q05941 whole entry): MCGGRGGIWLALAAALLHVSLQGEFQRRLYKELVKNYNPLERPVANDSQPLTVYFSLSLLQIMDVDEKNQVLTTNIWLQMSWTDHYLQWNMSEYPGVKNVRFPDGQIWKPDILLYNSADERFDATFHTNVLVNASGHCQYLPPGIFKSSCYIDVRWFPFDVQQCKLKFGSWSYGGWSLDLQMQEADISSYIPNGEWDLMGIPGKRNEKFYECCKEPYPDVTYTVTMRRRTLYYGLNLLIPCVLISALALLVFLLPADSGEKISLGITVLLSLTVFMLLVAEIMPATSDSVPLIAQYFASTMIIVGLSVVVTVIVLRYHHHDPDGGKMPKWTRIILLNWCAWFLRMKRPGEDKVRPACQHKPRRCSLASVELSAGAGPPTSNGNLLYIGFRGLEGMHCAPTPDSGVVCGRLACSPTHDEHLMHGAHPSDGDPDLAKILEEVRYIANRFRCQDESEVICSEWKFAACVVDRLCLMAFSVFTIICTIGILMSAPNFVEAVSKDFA

By Ki is commonly meant the equilibrium dissociation constant of an inhibitor or competing ligand from its target. A higher Ki goes with a looser hold on the target. `c1ccc(-c2cncc(N3CCCNCC3)c2)cc1`: the Ki in assay [1] was 0.8 nM; in assay [2], more than 10000 nM.

Consider `CCOc1cc(N2CCCNCC2)cnc1Br`, for which the Ki in assay [1] is 0.25 nM; in assay [2], 847 nM.

`Clc1ccc([C@H]2C[C@@H]3CC[C@H]2N3)cn1` displayed a Ki in assay [3] of 0.097 nM.

Consider `CCOc1cncc(N2CCCNCC2)c1` [NS3573, 2], for which the Ki in assay [1] was determined as 0.62 nM; in assay [2], 9970 nM; in assay [3] it was 2.2 nM.

Turning to `c1cncc(N2CCCNCC2)c1`, the Ki in assay [1] worked out at 0.72 nM; in assay [2], 136 nM.

As for `O=c1cccc2n1CC1CNCC2C1` (stereo not given) [CAS_485-35-8], the results for the Ki in assay [1], in assay [2] and in assay [3] were 0.95 nM, 295 nM and 8.2 nM, respectively.

Regarding `Brc1ccc(N2CCCNCC2)cn1` [NS3920, 4], the Ki in assay [1] is 0.32 nM; in assay [2], 190 nM.
